{"source": "patent US20230276804A1", "about": "“A PESTICIDALLY ACTIVE MIXTURE COMPRISING PYRAZOLOPYRIDINE ANTHRANILAMIDE COMPOUND, OXIDES OR SALTS THEREOF” (priority 2020, published 2023)", "type_in_all_cases": "in vivo", "key": {"Spodoptera litura": {"tested_on": "Spodoptera litura", "assay": "Diet incorporation method against Spodoptera litura (Example B)", "settings": "single compound, 96 h", "procedure": "The diet incorporation method was used, in which semi-synthetic diet was incorporated into the test solution consisting either of the single compound or respective compound combinations, when the temperature was approximately 50° C. in the bioassay containers, then stirred thoroughly for proper mixing and allowed to cool for 30 min. The solidified diet was cut into equal pieces, and then each piece was transferred into one cell of the bio-assay trays. A single starved third instar larva was released into each of these cells of the bio-assay trays and the tray was covered with a lid. The bio-assay trays were kept under laboratory conditions at a temperature of 25° C. and relative humidity of 70%. Observations on dead, moribund and live larvae were recorded 96 h after the release. Percent mortality was calculated by combining dead and moribund larvae and comparing the result with the one of the untreated control. The results are shown for the compound of formula (I-III) in Table B."}, "Phakopsora pachyrhizi": {"tested_on": "Phakopsora pachyrhizi", "assay": "Preventive glasshouse test against Phakopsora pachyrhizi in soybean (Example H)", "settings": "single compound", "procedure": "The single compounds or the respective compound combinations were dissolved in 2% dimethyl sulfoxide/acetone and then mixed with water containing an emulsifier to a calibrated spray volume of 50 ml. The test solutions were poured into spray bottles for further applications.\nTo test the preventive activity of compounds, healthy young Soybean plants, raised in the greenhouse, were sprayed with the active compound preparation at the stated application rates inside the spray cabinets using hollow cone nozzles. One day after treatment, the plants were inoculated with a suspension containing 2×10^5 Phakopsora pachyrhizi conidia. The inoculated plants were then kept in a greenhouse chamber at a temperature of 22-24° C. and 80-90% relative humidity for disease expression.\nA visual assessment of the performance of the single compounds and respective compound combinations was carried out by rating the disease severity (0-100% scale) on treated plants 3, 7, 10 and 15 days after application. Efficacy (% control) of the compounds was calculated by comparing the disease rating in the treatment with the one of the untreated control. The compounds were also assessed for their plant compatibility by recording symptoms like necrosis, chlorosis and stunting. The results have been described for the compound of formula (I-III) in Table H."}, "Erysiphe cichoracearum": {"tested_on": "Erysiphe cichoracearum", "assay": "Preventive glasshouse test against Erysiphe cichoracearum in cucumber (Example K)", "settings": "single compound", "procedure": "The single compounds or the respective compound combinations were dissolved in 2% dimethyl sulfoxide/acetone and then mixed with water containing emulsifier to a calibrated spray volume of 50 mL. The test solutions were poured into spray bottles for further applications.\nTo test the preventive activity of compounds, healthy young cucumber plants, raised in the greenhouse, were sprayed with the active compound preparation at the stated application rates inside the spray cabinets using hollow cone nozzles. One day after treatment, the plants were inoculated with a conidial suspension containing 2×10^5 Erysiphe cichoracearum inoculum. The inoculated plants were then kept in a greenhouse chamber at a temperature of 22-24° C. and 50-60% relative humidity for disease expression.\nA visual assessment of the performance of the compounds and the respective compound combinations was carried out by rating the disease severity (0-100% scale) on treated plants 3, 7, 10 and 15 days after application. Efficacy (% control) of the single compounds or compound combinations was calculated by comparing the disease rating in the treatment with the one of the untreated control. The compounds were also assessed for their plant compatibility by recording symptoms like necrosis, chlorosis and stunting. The results have been described for the compound of formula (I-III) in Table K."}, "Helicoverpa armigera": {"tested_on": "Helicoverpa armigera", "assay": "Diet incorporation method against Helicoverpa armigera (Example A)", "settings": "single compound, 96 h", "procedure": "The diet incorporation method was used, in which semi-synthetic diet was incorporated into the test solutions consisting either of the single compounds or respective compound combinations, when the temperature was approximately 50° C. in the bio-assay containers, then stirred thoroughly for proper mixing and allowed to cool for 30 min. The solidified diet was cut into equal pieces, and then each piece was transferred into one cell of a bio-assay tray. A single starved third instar larva was released into each of these cells of the bio-assay trays and the tray was covered with a lid. The bio-assay trays were kept under laboratory conditions at a temperature of 25° C. and relative humidity of 70%. Observations on dead, moribund and live larvae were recorded 96 h after the release of the larvae. Percent mortality was calculated by combining dead and moribund larvae and comparing the result to the one of the untreated control. The results are shown for the compound of formula (I-III) in Table A."}, "Pyricularia oryzae": {"tested_on": "Pyricularia oryzae", "settings": "single compound, 0.05 ppm, preventive, rice"}, "Alternaria solani": {"tested_on": "Alternaria solani", "assay": "Preventive glasshouse test against Alternaria solani in tomato (Example G)", "settings": "single compound", "procedure": "(§1) The single compounds or respective compound combinations were dissolved in 2% dimethyl sulfoxide/acetone and then mixed with water containing emulsifier to a calibrated spray volume of 50 mL. The test solutions were poured into spray bottles for further applications.\nTo test the preventive activity, healthy young tomato plants, raised in the greenhouse, were sprayed with the active compound preparation at the stated application rates inside the spray cabinets using hollow cone nozzles. One day after treatment, the plants were inoculated with a spore suspension containing 0.24×10^6 Alternaria solani inoculum and 2% Malt. The inoculated plants were then kept in a greenhouse chamber at a temperature of 22-24° C. and 90-95% relative humidity for disease expression.\n(§2) A visual assessment of the performance of the single compounds or compound combinations was carried out by rating the disease severity (0-100% scale) on treated plants 3, 7, 10 and 15 days after application. Efficacy (% control) of the single compounds and mixtures was calculated by comparing the disease rating in the treatment with the one of the untreated control. The compounds were also assessed for their plant compatibility by recording symptoms like necrosis, chlorosis and stunting. The results have been described for the compound of formula (I-III) in Table G."}, "Septoria nodorum": {"tested_on": "Septoria nodorum", "assay": "Preventive glasshouse test against Parastagonospora nodorum/Septoria nodorum/Stagnospora nodorum in wheat (Example J)", "settings": "single compound", "procedure": "as §1\nTo test the preventive activity of compounds, healthy young wheat plants, raised in the greenhouse, were sprayed with the active compound preparation at the stated application rates inside the spray cabinets using hollow cone nozzles. One day after treatment, the plants were inoculated with a spore suspension containing 2.8×10^6 Stagnospora nodorum inoculum.\nThe inoculated plants were then kept in a greenhouse chamber at 22-25° C. temperature and 90-100% relative humidity for disease expression.\nas §2, with “J.” for “G.”"}, "[1]": {"settings": "Spodoptera litura, 100 ppm, read-out: Observed Efficacy (%)"}, "[2]": {"settings": "Spodoptera litura, 200 ppm, read-out: Observed Efficacy (%)"}, "[3]": {"settings": "Helicoverpa armigera, 100 ppm, read-out: Observed Efficacy (%)"}}, "note": "Several values for one entry are separate records, joined by “and”; a condition that tells them apart may be missing. Equal values may be shown once."}
{"smiles": "N#Cc1ccccc1NC(=O)c1snc(Cl)c1Cl", "note": "[Isotianil]", "values": [{"measurement": "Observed Efficacy (%)", "setting": "Spodoptera litura; 100 ppm", "result": 0, "unit": "%"}, {"measurement": "Observed Efficacy (%)", "setting": "Spodoptera litura; 200 ppm", "result": 0, "unit": "%"}, {"measurement": "Observed Efficacy (%)", "setting": "Phakopsora pachyrhizi; 10.0 ppm", "result": 31, "unit": "%"}, {"measurement": "Observed Efficacy (%)", "setting": "Phakopsora pachyrhizi; 50.0 ppm", "result": 41, "unit": "%"}, {"measurement": "Observed Efficacy (%)", "setting": "Erysiphe cichoracearum; Conc. 10 ppm", "result": 51, "unit": "%"}, {"measurement": "Observed Efficacy (%)", "setting": "Erysiphe cichoracearum; Conc. 50 ppm", "result": 57, "unit": "%"}, {"measurement": "Observed Efficacy (%)", "setting": "Helicoverpa armigera; 100 ppm", "result": 0, "unit": "%"}, {"measurement": "Observed Efficacy (%)", "setting": "Helicoverpa armigera; 200 ppm", "result": 25, "unit": "%"}]}
{"smiles": "CO/C=C(/C(=O)OC)c1ccccc1Oc1cc(Oc2ccccc2C#N)ncn1", "note": "[Azoxystrobin]", "values": [{"measurement": "Observed Efficacy (%)", "setting": "Spodoptera litura; 100 ppm", "result": 0, "unit": "%"}, {"measurement": "Observed Efficacy (%)", "setting": "Spodoptera litura; 500 ppm", "result": 0, "unit": "%"}, {"measurement": "Observed Efficacy (%)", "setting": "Pyricularia oryzae", "result": 30, "unit": "%"}, {"measurement": "Observed Efficacy (%)", "setting": "Erysiphe cichoracearum; Conc. 0.05 ppm", "result": 26, "unit": "%"}, {"measurement": "Observed Efficacy (%)", "setting": "Erysiphe cichoracearum; Conc. 0.1 ppm", "result": 43, "unit": "%"}, {"measurement": "Observed Efficacy (%)", "setting": "Alternaria solani; 0.05 ppm", "result": 26, "unit": "%"}, {"measurement": "Observed Efficacy (%)", "setting": "Alternaria solani; 0.1 ppm", "result": 40, "unit": "%"}, {"measurement": "Observed Efficacy (%)", "setting": "Helicoverpa armigera; 100 ppm", "result": 0, "unit": "%"}, {"measurement": "Observed Efficacy (%)", "setting": "Helicoverpa armigera; 500 ppm", "result": 0, "unit": "%"}]}
{"smiles": "COC(=O)N(OC)c1ccccc1COc1ccn(-c2ccc(Cl)cc2)n1", "note": "[Pyraclostrobin]", "values": [{"measurement": "pest or weed control at 100 ppm", "setting": "Spodoptera litura; [1]", "result": 12.5, "unit": "%"}, {"measurement": "pest or weed control at 200 ppm", "setting": "Spodoptera litura; [2]", "result": 12.5, "unit": "%"}, {"measurement": "pest or weed control at 500 ppm", "setting": "Spodoptera litura; Spodoptera litura, 500 ppm, read-out: Observed Efficacy (%)", "result": 12.5, "unit": "%"}, {"measurement": "Observed Efficacy (%)", "setting": "Phakopsora pachyrhizi; 0.05 ppm", "result": 39, "unit": "%"}, {"measurement": "Observed Efficacy (%)", "setting": "Erysiphe cichoracearum; Conc. 0.05 ppm", "result": 29, "unit": "%"}, {"measurement": "Observed Efficacy (%)", "setting": "Alternaria solani; 0.05 ppm", "result": 26, "unit": "%"}, {"measurement": "Observed Efficacy (%)", "setting": "Alternaria solani; 0.1 ppm", "result": 26, "unit": "%"}, {"measurement": "pest or weed control at 100 ppm", "setting": "Helicoverpa armigera; [3]", "result": 0, "unit": "%"}]}
{"smiles": "O=C(NCCc1ncc(C(F)(F)F)cc1Cl)c1ccccc1C(F)(F)F", "note": "[Fluopyram]", "values": [{"measurement": "pest or weed control at 100 ppm", "setting": "Spodoptera litura; [1]", "result": 0, "unit": "%"}, {"measurement": "Observed Efficacy (%)", "setting": "Septoria nodorum; 10 ppm", "result": 25, "unit": "%"}, {"measurement": "Observed Efficacy (%)", "setting": "Alternaria solani; 10 ppm", "result": 67, "unit": "%"}, {"measurement": "pest or weed control at 50 ppm", "setting": "Helicoverpa armigera; Helicoverpa armigera, 50 ppm, read-out: Observed Efficacy (%)", "result": 0, "unit": "%"}]}
{"smiles": "C=CCOC1=NS(=O)(=O)c2ccccc21", "note": "[Probenazole]", "values": [{"measurement": "pest or weed control at 100 ppm", "setting": "Spodoptera litura; [1]", "result": 12.5, "unit": "%"}, {"measurement": "pest or weed control at 200 ppm", "setting": "Spodoptera litura; [2]", "result": 0, "unit": "%"}, {"measurement": "Observed Efficacy (%)", "setting": "Phakopsora pachyrhizi; 2.0 ppm", "result": 22, "unit": "%"}, {"measurement": "Observed Efficacy (%)", "setting": "Phakopsora pachyrhizi; 10.0 ppm", "result": 28, "unit": "%"}, {"measurement": "Observed Efficacy (%)", "setting": "Erysiphe cichoracearum; Conc. 2 ppm", "result": "15% and 16%"}, {"measurement": "Observed Efficacy (%)", "setting": "Erysiphe cichoracearum; Conc. 10 ppm", "result": 22, "unit": "%"}, {"measurement": "pest or weed control at 100 ppm", "setting": "Helicoverpa armigera; [3]", "result": 0, "unit": "%"}]}
{"smiles": "Cn1cc(C(=O)Nc2ccccc2-c2cc(F)c(F)c(F)c2)c(C(F)F)n1", "note": "[Fluxapyroxad]", "values": [{"measurement": "Observed Efficacy (%)", "setting": "Spodoptera litura; 100 ppm", "result": 0, "unit": "%"}, {"measurement": "Observed Efficacy (%)", "setting": "Spodoptera litura; 200 ppm", "result": 0, "unit": "%"}, {"measurement": "Observed Efficacy (%)", "setting": "Spodoptera litura; 500 ppm", "result": 0, "unit": "%"}, {"measurement": "Observed Efficacy (%)", "setting": "Septoria nodorum; 0.05 ppm", "result": 12, "unit": "%"}, {"measurement": "Observed Efficacy (%)", "setting": "Septoria nodorum; 0.1 ppm", "result": 29, "unit": "%"}, {"measurement": "Observed Efficacy (%)", "setting": "Erysiphe cichoracearum; Conc. 0.05 ppm", "result": 29, "unit": "%"}, {"measurement": "Observed Efficacy (%)", "setting": "Alternaria solani; 0.05 ppm", "result": 14, "unit": "%"}, {"measurement": "Observed Efficacy (%)", "setting": "Alternaria solani; 0.1 ppm", "result": 26, "unit": "%"}]}
